Assay results published in patent publication US20250195521A1 (Revolution Medicines, Inc., priority 2020, published 2025).
Read-outs that look alike come from different tables or passages of the source.

Experiments:
KRAS G12D = KRAS G12D (Homo sapiens (Human), UniProt P01116+P62937, G12D); experiment: Ras-Raf disruption/FRET/MOA assay (BRAF RBD, Cyclophilin A); type: biochemical; settings: read-out: KRAS G12D FRET IC50
Experimental: (§1) Compound is present in plate wells as a 10-point 3-fold dilution series starting at a final concentration of 30 μM. After incubation at 25° C. for 3 hours, a mixture of Anti-His Eu—W1024 and anti-GST allophycocyanin is then added to assay sample wells at final concentrations of 10 nM and 50 nM, respectively, and the reaction incubated for an additional 1.5 hours. […] Compounds that facilitate disruption of a Ras: RAF complex are identified as those eliciting a decrease in the TR-FRET ratio relative to DMSO control wells.
(§2) Disruption of B-Raf Ras-Binding Domain (BRAF^RBD) Interaction with K-Ras by Compounds of the Invention (Also Called a FRET Assay or an MOA Assay)
(§3) Note—The following protocol describes a procedure for monitoring disruption of K-Ras G12C (GMP-PNP) binding to BRAF^RBD by a compound of the invention. This protocol may also be executed substituting other Ras proteins or nucleotides.
(§4) The purpose of this biochemical assay was to measure the ability of test compounds to facilitate ternary complex formation between a nucleotide-loaded K-Ras isoform and Cyclophilin A; the resulting ternary complex disrupts binding to a BRAF^RBD construct, inhibiting K-Ras signaling through a RAF effector. Data is reported as IC50 values.
(§5) In assay buffer containing 25 mM HEPES pH 7.3, 0.002% Tween20, 0.1% BSA, 100 mM NaCl and 5 mM MgCl2, tagless Cyclophilin A, His6-K-Ras-GMPPNP, and GST-BRAF^RBD were combined in a 384-well assay plate at final concentrations of 25 μM, 12.5 nM and 50 nM, respectively. Compound was present in plate wells as a 10-point 3-fold dilution series starting at a final concentration of 30 μM. After incubation at 25° C. for 3 hours, a mixture of Anti-His Eu—W1024 and anti-GST allophycocyanin was then added to assay sample wells at final concentrations of 10 nM and 50 nM, respectively, and the reaction incubated for an additional 1.5 hours. […] Compounds that facilitate disruption of a K-Ras: RAF complex were identified as those eliciting a decrease in the TR-FRET ratio relative to DMSO control wells.

KRAS G13C = KRAS G13C (Homo sapiens (Human), UniProt P01116+P62937, G13C); experiment: as above; type: biochemical; settings: read-out: KRAS G13C FRET IC50
Experimental: as §1, §2, §3, §4, §5

KRAS G12V = KRAS G12V (Homo sapiens (Human), UniProt P01116+P62937, G12V); experiment: as above; type: biochemical; settings: read-out: KRAS G12V FRET IC50
Experimental: as §1, §2, §3, §4, §5

[1] = system: K-Ras G12C (NCI-H358 cells); experiment: Potency assay: pERK in NCI-H358 cells; type: cell-based, human; settings: Homo sapiens, read-out: pERK EC50 (H358 KRAS G12C)
Experimental: The purpose of this assay is to measure the ability of test compounds to inhibit K-Ras in cells. […] This procedure measures a decrease in cellular pERK in response to test compounds. The procedure described below in NCI-H358 cells is applicable to K-Ras G12C.
Note: This protocol may be executed substituting other cell lines to characterize inhibitors of other RAS variants, including, for example, AsPC-1 (K-Ras G12D), Capan-1 (K-Ras G12V), or NCI-H1355 (K-Ras G13C).
NCI-H358 cells were grown and maintained using media and procedures recommended by the ATCC. On the day prior to compound addition, cells were plated in 384-well cell culture plates (40 μl/well) and grown overnight in a 37° C., 5% CO2 incubator. Test compounds were prepared in 10, 3-fold dilutions in DMSO, with a high concentration of 10 mM. On the day of assay, 40 nL of test compound was added to each well of cell culture plate using an Echo550 liquid handler (LabCyte®). Concentrations of test compound were tested in duplicate. After compound addition, cells were incubated 4 hours at 37° C., 5% CO2. Following incubation, culture medium was removed and cells were washed once with phosphate buffered saline.
In some experiments, cellular pERK level was determined using the AlphaLISA SureFire Ultra p-ERK1/2 Assay Kit (PerkinElmer). Cells were lysed in 25 μL lysis buffer, with shaking at 600 RPM at room temperature. […] After a 2-hour incubation in the dark, 5 μL donor mix was added, plate was sealed, and incubated 2 hours at room temperature. Signal was read on an Envision plate reader (PerkinElmer) using standard AlphaLISA settings. Analysis of raw data was carried out in Excel (Microsoft) and Prism (GraphPad). Signal was plotted vs. the decadal logarithm of compound concentration, and IC50 was determined by fitting a 4-parameter sigmoidal concentration response model.
In other experiments, cellular pERK was determined by In-Cell Western. […] Fixed cells were washed 4 times for 5 minutes with TBS containing 0.1% Triton X-100 (TBST) and then blocked with 100 μL Odyssey blocking buffer (LI-COR) for 60 minutes at room temperature. Primary antibody (PERK, CST-4370, Cell Signaling Technology) was diluted 1:200 in blocking buffer, and 50 μL was added to each well and incubated overnight at 4° C. Cells were washed 4 times for 5 minutes with TBST. Secondary antibody (IR-800CW rabbit, LI-COR, diluted 1:800) and DNA stain DRAQ5 (LI-COR, diluted 1:2000) were added and incubated 1-2 hours at room temperature. Cells were washed 4 times for 5 minutes with TBST. Plates were scanned on a Li—COR Odyssey CLx Imager. Analysis of raw data was carried out in Excel (Microsoft) and Prism (GraphPad). Signal was plotted vs. the decadal logarithm of compound concentration, and IC50 was determined by fitting a 4-parameter sigmoidal concentration response model.

Sequence of KRAS G12V (P01116 other isoform, or with tags, fused parts or gaps G12V): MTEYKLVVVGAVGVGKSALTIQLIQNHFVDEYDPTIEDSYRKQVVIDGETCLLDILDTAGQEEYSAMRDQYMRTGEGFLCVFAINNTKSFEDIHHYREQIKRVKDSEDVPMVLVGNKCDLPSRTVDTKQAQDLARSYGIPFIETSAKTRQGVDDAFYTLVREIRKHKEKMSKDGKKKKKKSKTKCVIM
Sequence of KRAS G12V (P62937 whole entry): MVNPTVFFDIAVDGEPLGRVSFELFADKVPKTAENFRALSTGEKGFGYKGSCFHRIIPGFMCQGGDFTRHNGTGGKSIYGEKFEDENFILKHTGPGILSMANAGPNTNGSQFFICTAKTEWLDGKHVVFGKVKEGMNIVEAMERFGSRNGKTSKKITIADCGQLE
Sequence of KRAS G12D (P01116 other isoform, or with tags, fused parts or gaps G12D): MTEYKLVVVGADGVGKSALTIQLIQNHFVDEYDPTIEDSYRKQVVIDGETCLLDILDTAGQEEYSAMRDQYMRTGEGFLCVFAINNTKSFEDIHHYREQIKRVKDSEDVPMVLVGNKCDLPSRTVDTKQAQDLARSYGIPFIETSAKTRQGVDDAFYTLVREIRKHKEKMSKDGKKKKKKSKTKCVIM
Sequence of KRAS G12D (P62937 whole entry): as the sequence (P62937 whole entry) above
Sequence of KRAS G13C (P01116 other isoform, or with tags, fused parts or gaps G13C): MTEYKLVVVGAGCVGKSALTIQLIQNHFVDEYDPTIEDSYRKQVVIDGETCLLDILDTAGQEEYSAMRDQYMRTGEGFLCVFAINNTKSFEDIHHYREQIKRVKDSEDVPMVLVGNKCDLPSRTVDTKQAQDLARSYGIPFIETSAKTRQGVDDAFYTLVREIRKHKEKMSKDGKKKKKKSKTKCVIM
Sequence of KRAS G13C (P62937 whole entry): as the sequence (P62937 whole entry) above

| EC50 ([1]; NCI-H358 cells, 4 hours) [µM] | Structure (SMILES) | further results |
| --- | --- | --- |
|  | CCn1c(-c2cccnc2[C@H](C)OC)c2c3cc(ccc31)-c1cc(O)cc(c1)C[C@H](NS(=O)(=O)CC1CCC3(CNC3)C1)C(=O)N1CCC[C@H](N1)C(=O)OCC(C)(C)C2 (stereo partly drawn) [Compound A188] | IC50 (KRAS G12D): > 10 µM; IC50 (KRAS G13C): 1 to 10 µM; IC50 (KRAS G12V): > 10 µM |
| < 5 | CCn1c(-c2cccnc2[C@H](C)OC)c2c3cc(ccc31)-c1csc(n1)C[C@H](NC(=O)[C@H](C(C)C)N(C)C(=O)N1CCCC13CCN(C)CC3)C(=O)N1CCC[C@H](N1)C(=O)OCC(C)(C)C2 [Compound A498] |  |
| < 5 | CCn1c(-c2cccnc2[C@H](C)OC)c2c3cc(ccc31)-c1csc(n1)C[C@H](NC(=O)[C@H](C(C)C)N(C)C(=O)N1CC3(CN(C)CCO3)C1)C(=O)N1CCC[C@H](N1)C(=O)OCC(C)(C)C2 [Compound A499] |  |
| < 5 | CCn1c(-c2cccnc2[C@H](C)OC)c2c3cc(ccc31)-c1csc(n1)C[C@H](NC(=O)[C@H](C(C)C)N(C)C(=O)N1CCC[C@H]1CN(C)C)C(=O)N1CCC[C@H](N1)C(=O)OCC(C)(C)C2 [Compound A519] |  |
| < 5 | CCn1c(-c2cccnc2[C@H](C)OC)c2c3cc(ccc31)-c1csc(n1)C[C@H](NC(=O)[C@H](C(C)C)N(C)C(=O)N1CCCC13CCOCC3)C(=O)N1CCC[C@H](N1)C(=O)OCC(C)(C)C2 [Compound A520] |  |
| < 5 | CCn1c(-c2cccnc2[C@H](C)OC)c2c3cc(ccc31)-c1csc(n1)C[C@H](NC(=O)[C@H](C(C)C)N(C)C(=O)N1CC3(CCCO3)C1)C(=O)N1CCC[C@H](N1)C(=O)OCC(C)(C)C2 [Compound A522] |  |
| < 5 | CCn1c(-c2cc(N3CCN(C)CC3)cnc2[C@H](C)OC)c2c3cc(ccc31)-c1csc(n1)C[C@H](NC(=O)[C@H](C1CCCC1)N(C)C(=O)N(C)C)C(=O)N1CCC[C@H](N1)C(=O)OCC(C)(C)C2 [Compound A526] |  |
| < 5 | CCn1c(-c2cccnc2[C@H](C)OC)c2c3cc(ccc31)-c1csc(n1)C[C@H](NC(=O)[C@H](C(C)C)N(C)C(=O)N1CCCC13COC3)C(=O)N1CCC[C@H](N1)C(=O)OCC(C)(C)C2 [Compound A528] |  |
| < 5 | CCn1c(-c2cccnc2[C@H](C)OC)c2c3cc(ccc31)-c1csc(n1)C[C@H](NC(=O)[C@H](C(C)C)N(C)C(=O)N1CC3(CC(N(C)CCOC)C3)C1)C(=O)N1CCC[C@H](N1)C(=O)OCC(C)(C)C2 [Compound A532] |  |
| < 5 | CCn1c(-c2cccnc2[C@H](C)OC)c2c3cc(ccc31)-c1csc(n1)C[C@H](NC(=O)[C@H](C(C)C)N(C)C(=O)N1CC([C@H](C)NC)C1)C(=O)N1CCC[C@H](N1)C(=O)OCC(C)(C)C2 [Compound A535] |  |
| < 5 | CCn1c(-c2cccnc2[C@H](C)OC)c2c3cc(ccc31)-c1cc(O)cc(c1)C[C@H](NC(=O)[C@H](C(C)C)N(C)C(=O)[C@@H]1OCC[C@@H]1c1cccnc1)C(=O)N1CCC[C@H](N1)C(=O)OCC(C)(C)C2 [Compound A546] |  |
|  | CCn1c(-c2cccnc2[C@H](C)OC)c2c3cc(ccc31)-c1csc(n1)C[C@H](NC(=O)[C@H](C(C)C)N(C)C(=O)N1CC(S(=O)(=O)NC)C1)C(=O)N1CCC[C@H](N1)C(=O)OCC(C)(C)C2 [Compound A549] | EC50 ([1]; NCI-H358, 4 h): < 5 µM |
| < 5 | CCn1c(-c2cc(N3CCN(C)CC3)cnc2[C@H](C)OC)c2c3cc(ccc31)-c1csc(n1)C[C@H](NC(=O)[C@H](C(C)C)N(C)C(=O)N1CCOCC1)C(=O)N1CCC[C@H](N1)C(=O)OCC(C)(C)C2 [Compound A555] |  |
| < 5 | CCn1c(-c2cccnc2[C@H](C)OC)c2c3cc(ccc31)-c1csc(n1)C[C@H](NC(=O)[C@H](C(C)C)N(C)C(=O)N1CCC3(CCN(C)CC3)C1)C(=O)N1CCC[C@H](N1)C(=O)OCC(C)(C)C2 [Compound A565] |  |
| < 5 | CCn1c(-c2cccnc2[C@H](C)OC)c2c3cc(ccc31)-c1csc(n1)C[C@H](NC(=O)[C@H](C(C)C)N(C)C(=O)N1C[C@H](N)[C@@H](F)C1)C(=O)N1CCC[C@H](N1)C(=O)OCC(C)(C)C2 [Compound A567] |  |
| < 5 | CCn1c(-c2cccnc2[C@H](C)OC)c2c3cc(ccc31)-c1csc(n1)C[C@H](NC(=O)[C@H](C(C)C)N(C)C(=O)N1CCOC[C@@H]1CN(C)C)C(=O)N1CCC[C@H](N1)C(=O)OCC(C)(C)C2 [Compound A572] |  |
| < 5 | CCn1c(-c2cccnc2[C@H](C)OC)c2c3cc(ccc31)-c1csc(n1)C[C@H](NC(=O)[C@H](C(C)C)N(C)C(=O)N1CCC[C@H](CN(C)C)C1)C(=O)N1CCC[C@H](N1)C(=O)OCC(C)(C)C2 [Compound A573] |  |
| < 5 | CCn1c(-c2cccnc2[C@H](C)OC)c2c3cc(ccc31)-c1csc(n1)C[C@H](NC(=O)[C@H](CC1CC1)N(C)C(=O)N1CC(OC)C1)C(=O)N1CCC[C@H](N1)C(=O)OCC(C)(C)C2 [Compound A578] |  |
| < 5 | CCn1c(-c2cccnc2[C@H](C)OC)c2c3cc(ccc31)-c1csc(n1)C[C@H](NC(=O)[C@H](C(C)C)N(C)C(=O)N1CC(OC)C1)C(=O)N1CC[C@H](C)[C@H](N1)C(=O)OCC(C)(C)C2 [Compound A579, N-((2S)-1-(((6^3S,6^4S,4S,Z)-1^1-ethyl-1^2-(2-((S)-1-methoxyethyl)pyridin-3-yl)-6^4, 10, 10-trimethyl-5,7-dioxo-6^1,6^2,6^3,6^4,6^5,6^6-hexahydro-1^1H-8-oxa-2 (4,2)-thiazola-1 (5,3)-indola-6 (1,3)-pyridazinacycloundecaphane-4-yl)amino)-3-methyl-1-oxobutan-2-yl)-3-methoxy-N-methylazetidine-1-carboxamide] |  |
| < 5 | CCn1c(-c2cccnc2[C@H](C)OC)c2c3cc(ccc31)-c1csc(n1)C[C@H](NC(=O)[C@H](C(C)C)N(C)C(=O)N1C[C@H](OC)[C@@H](N)C1)C(=O)N1CCC[C@H](N1)C(=O)OCC(C)(C)C2 [Compound A580] |  |
| < 5 | CCn1c(-c2cccnc2[C@H](C)OC)c2c3cc(ccc31)-c1csc(n1)C[C@H](NC(=O)[C@H](C(C)C)N(C)C(=O)N1CCOC[C@@H]1c1ccccc1)C(=O)N1CCC[C@H](N1)C(=O)OCC(C)(C)C2 [Compound A604] |  |
| < 5 | CCn1c(-c2cccnc2[C@H](C)OC)c2c3cc(ccc31)-c1csc(n1)C[C@H](NC(=O)[C@H](C(C)C)N(C)C(=O)N1[C@H](C)CN(C)C[C@H]1C)C(=O)N1CCC[C@H](N1)C(=O)OCC(C)(C)C2 [Compound A610] |  |
